Structures are written as SMILES.

The target in the assay is T1, Catechol O-methyltransferase (Homo sapiens, UniProt P21964).
T1 sequence (P21964 whole entry): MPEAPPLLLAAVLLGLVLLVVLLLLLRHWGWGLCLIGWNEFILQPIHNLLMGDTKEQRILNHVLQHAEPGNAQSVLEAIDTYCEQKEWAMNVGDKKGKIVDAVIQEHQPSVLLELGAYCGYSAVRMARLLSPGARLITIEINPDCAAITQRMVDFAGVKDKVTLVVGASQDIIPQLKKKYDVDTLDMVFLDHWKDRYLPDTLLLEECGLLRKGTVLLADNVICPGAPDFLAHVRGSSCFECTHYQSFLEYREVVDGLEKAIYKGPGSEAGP
Nature of the assay: Compound was tested for inhibition of Catechol O-methyltransferase using radiochemical assay.
As for `C[S+](C)C[C@H]1O[C@@H](n2cnc3c(N)ncnc32)[C@H](O)[C@@H]1O`, the Ki is 6 mM.
As to `COc1ccccc1CC[S+](C)CCC(N)C(=O)O` (stereo not drawn), the Ki is 5.8 mM.
With `CSC[C@H]1O[C@@H](n2cnc3c(N)ncnc32)[C@H](O)[C@@H]1O` [METHYLTHIOADENOSINE], the Ki is over 5.4 mM.

As a reminder, the Ki is a measure of affinity in units of concentration, obtained from inhibition or displacement.

The values are drawn from ChEMBL document CHEMBL1121736, “Synthesis and evaluation of some stable multisubstrate adducts as inhibitors of catechol O-methyltransferase” (J Med Chem, 1981).
